Experimental data: ChEMBL document CHEMBL1156829 (Proc Natl Acad Sci U S A, 2008)
Where “and” joins values, the source holds several entries; their conditions need not be identical. Equal entries are not always repeated.

Experiments:
Plasmodium falciparum [1] = assay: NOVARTIS: Inhibition of Plasmodium falciparum 3D7 (drug-susceptible) proliferation in erythrocyte-based infection assay; type: functional, organism-based
Plasmodium falciparum [2] = assay: NOVARTIS: Inhibition of Plasmodium falciparum W2 (drug-resistant) proliferation in erythrocyte-based infection assay; type: functional, organism-based; details: read-out: EC50
Huh-7 = assay: NOVARTIS: Cytotoxicity against human hepatocellular carcinoma cell line (Huh7); type: toxicity, cell-based; details: huh-7, read-out: CC50

Compound	EC50 (Plasmodium falciparum [1])	EC50 (Plasmodium falciparum [2])	CC50 (Huh-7)	EC50 (Plasmodium falciparum [2]; Plasmodium falciparum, W2) [nM]	EC50 (Plasmodium falciparum [1]; Plasmodium falciparum, 3D7) [nM]
CC[n+]1c(/C=C/N(C)c2ccccc2)n(-c2ccccc2)c2ccc(-c3nc4ccccc4s3)cc21	> 929 nM and 460 nM	> 1730 nM and 314 nM	> 10000 nM and 26900 nM		
CCN1/C(=C/c2ccc3ccccc3[n+]2CC)C=Cc2ccccc21	618 nM and 65.8 nM	544 nM and 189 nM	> 10000 nM and 36800 nM		
CCN1C(=Cc2sc3ccccc3[n+]2C)C=Cc2cccc(C)c21	493 nM	800 nM	> 10000 nM		
CC[n+]1c(C=C2Sc3ccccc3N2CCO)sc2ccccc21	1410 nM	> 1480 nM	> 10000 nM		
Cc1ccc(N=C2NC(=O)/C(=C\c3ccc(N(C)C)cc3)S2)cc1	615 nM and 1470 nM	488 nM and 1250 nM	> 100000 nM		
CCN1/C(=C/c2ccc3ccccc3[n+]2CC)Sc2cc(NC(C)=O)ccc21 [listing 1 of 2 here]	112 nM	70.8 nM	> 100000 nM		
C[n+]1ccc(C=Cc2ccc(O)cc2)cc1	303 nM	175 nM	> 10000 nM		
CCN1/C(=C/c2ccc3ccccc3[n+]2CC)Sc2cc(NC(C)=O)ccc21 [listing 2 of 2 here]	930 nM	714 nM	> 10000 nM		
CCN1/C(=C/c2[se]c3ccccc3[n+]2CC)C=Cc2cc(OC)ccc21 [listing 1 of 2 here]	1590 nM	977 nM	12700 nM		
Cc1occc1C(=O)NN=C/C(Br)=C/c1ccccc1	1370 nM and 206 nM	502 nM	> 10000 nM and 47100 nM	593	
CCN1/C(=C/c2cccc[n+]2C)Sc2ccc(C)cc21	487 nM and 1350 nM	545 nM and 2280 nM	> 100000 nM		
CCN(CC)c1ccc(C=Cc2cccc[n+]2CC)cc1	2.44 nM	290 nM	> 10000 nM		
CCCC[n+]1c(C=C2C=Cc3ccccc3N2CC)sc2ccccc21	81.5 nM	228 nM	6120 nM		
CC[n+]1ccccc1C=Cc1ccc(N(C)C)cc1	260 nM and 350 nM	1270 nM and 271 nM and 380 nM	15200 nM and > 10000 nM and > 100000 nM		364
CC[n+]1c(C=CN(C)c2ccccc2)oc(-c2ccccc2)c1-c1ccccc1	617 nM and 193 nM	410 nM and 105 nM	> 10000 nM and 2740 nM		
CCN1/C(=C/c2cccc[n+]2C)C=Cc2ccc(C)cc21	225 nM and 489 nM	448 nM	> 49800 nM	328	
COc1cc(/C=C2/SC(=Nc3ccccc3)NC2=O)ccc1OCc1ccccc1F	> 1100 nM and 3670 nM	> 12500 nM	> 100000 nM		
CC[n+]1c(/C=C/N2CCCc3ccccc32)ccc2ccccc21	103 nM	246 nM	> 9970 nM		
CC[n+]1c(C=CN(C)C)sc2ccccc21	443 nM	462 nM	> 10000 nM		
CCN1C(=Cc2sc3cc(NC(C)=O)ccc3[n+]2CC)C=Cc2cc(C)ccc21	1570 nM		> 10000 nM	568	
CC[n+]1c(/C=C2\C=Cc3cc(C)ccc3N2C)ccc2cc(C)ccc21	> 1150 nM and 225 nM	961 nM	> 10000 nM and 32100 nM	> 1250	
CCN1/C(=C\C=C\c2n(CC)c3ccc(C#N)cc3[n+]2CC)Oc2ccc(-c3ccccc3)cc21 [listing 1 of 2 here]	3850 nM	6060 nM	> 100000 nM		
CCOC(=O)c1ccc(-n2c(C)cc(/C=C3\SC(=Nc4ccc(Cl)cc4)NC3=O)c2C)cc1	844 nM and 3370 nM	1420 nM	> 100000 nM	1700	
Cc1ccc(-n2c(C)cc(/C=C3\SC(=Nc4ccc(Cl)cc4)NC3=O)c2C)cc1	512 nM and 194 nM	629 nM	> 100000 nM	611	
CC(C)c1ccc(/C=C2/SC(=Nc3ccccc3)NC2=O)cc1	1000 nM and 479 nM	1010 nM	> 100000 nM	1130	
CCN1/C(=C/c2cccc[n+]2C)Sc2ccccc21	4250 nM and 440 nM	1070 nM and 2700 nM	> 100000 nM		

Compound	EC50 (Plasmodium falciparum [1])	EC50 (Plasmodium falciparum [2])	CC50 (Huh-7)	EC50 (Plasmodium falciparum [2]; Plasmodium falciparum, W2) [nM]	EC50 (Plasmodium falciparum [1]; Plasmodium falciparum, 3D7) [nM]
O=C1NC(=Nc2ccccc2)/C(=C/c2ccc(O)cc2)S1	810 nM	2160 nM	> 10000 nM and 21000 nM	> 1090	> 1250
CCN1/C(=C\C=C\c2n(CC)c3ccc(C#N)cc3[n+]2CC)Oc2ccc(-c3ccccc3)cc21 [listing 2 of 2 here]	610 nM	1060 nM	> 10000 nM		
CC[n+]1c(/C=C2\Sc3cc(C)ccc3N2CCO)ccc2ccccc21	1200 nM and 195 nM	861 nM and 228 nM	> 10000 nM and 21300 nM		
O=C(Nc1ccc(-c2nc3cc(NC(=O)c4cccc([N+](=O)[O-])c4)ccc3[nH]2)cc1)c1cccc([N+](=O)[O-])c1	324 nM	635 nM and 246 nM	1670 nM and 667 nM		489
C/C(C=NNC(=O)c1ccco1)=C\c1ccccc1	> 1760 nM and 486 nM	650 nM	> 100000 nM	> 1100	
COc1ccc2c(c1)N(C)/C(=C/c1cccc[n+]1C)S2	941 nM and 219 nM	> 787 nM and 302 nM	> 100000 nM		
C=C[C@H]1C[N@]2CC[C@H]1C[C@@H]2[C@@H](OC(=O)Cc1cccs1)c1ccnc2ccccc12	9.8 nM and 62.2 nM	78.7 nM	> 10000 nM and 95100 nM	46.6	
C[n+]1ccc(/C=C/c2c[nH]c3ccccc23)cc1	136 nM and 472 nM	95.9 nM	> 100000 nM	63.2	
CCN1/C(=C/c2[se]c3ccccc3[n+]2CC)C=Cc2cc(OC)ccc21 [listing 2 of 2 here]	171 nM	266 nM	4950 nM		
O=C1NN(c2ccccc2)C(=O)/C1=C1/C(=O)N(Cc2cccc3ccccc23)c2ccccc21	> 541 nM and 5050 nM	> 1250 nM and 3260 nM	> 100000 nM		
O=C1NC(=Nc2ccccc2)S/C1=C/c1ccc(F)c(Br)c1	> 12500 nM	1630 nM and > 94.2 nM	> 100000 nM		
CCOc1ccc(Br)cc1/C=C1\SC(=Nc2ccccc2CC)N(c2ccccc2CC)C1=O	8330 nM and > 835 nM	> 1250 nM and 4860 nM	> 100000 nM		
Cc1ccc(/C=C2/SC(=Nc3ccccc3)NC2=O)c(C)c1	468 nM and 232 nM	351 nM	> 100000 nM	455	
CCN1C=C/C(=C\c2cccc[n+]2C)c2ccccc21	1030 nM	683 nM and 1960 nM	> 100000 nM		827
CCCCN1C(=Cc2cccc[n+]2C)Sc2cc(NC(C)=O)ccc21	2110 nM	3670 nM	> 100000 nM		
CC[n+]1c(C=CN(C)c2ccccc2)sc2ccc(Cl)cc21	223 nM	367 nM	> 10000 nM and 23000 nM	352	156
CCCCCC[n+]1ccccc1C=Cc1ccc(N(C)C)cc1	96.1 nM	211 nM	2410 nM		
CC[n+]1c(/C=C2\Sc3oc4ccccc4c3N2C)ccc2cc(C)ccc21	87.5 nM and 253 nM	89.7 nM	3590 nM and 13600 nM	84.7	
CCN1/C(=C/c2ccc3cc(C)ccc3[n+]2C)Sc2ccc3ccsc3c21	951 nM and 371 nM	843 nM	> 10000 nM and 55900 nM	> 1250	
CCN1C(=Cc2sc3ccc(OC)cc3[n+]2CC)C=Cc2ccccc21	417 nM		9870 nM	249	
C=C(c1ccccc1)[n+]1ccc(/C=C/c2ccccc2O)cc1	355 nM and 739 nM	289 nM	> 10000 nM and 92700 nM	277	
CCN1/C(=C/C=C/C2=[N+](C)c3ccc(C)cc3C2(C)C)C=Cc2ccccc21	861 nM and 158 nM	860 nM and 184 nM	> 10000 nM and 4990 nM		
CCn1c(/C=C/N(C)c2ccccc2)[n+](CC)c2cc(Cl)ccc21	391 nM and 91.3 nM	513 nM and 87.8 nM	22600 nM and > 10000 nM		
CCN1C(=Cc2sc3ccccc3[n+]2C)C=Cc2ccc(C)cc21	122 nM	291 nM	11400 nM		
CCN1/C(=C/C=C/c2sc3ccccc3[n+]2CC)Sc2ccccc21	258 nM	164 nM	9030 nM		
